Reference: article PMC8891185 (The Journal of Nutrition, 2021)

Legend:
[1] = 9-mo-old, iron-replete children, cited from earlier work; for iron bioavailability from inhibitory WG cereal: PA:Fe 2.2:1, no added AA
[2] = anemic infants; 5 mg/kg of Fe daily for 28 d; cited from earlier work
[3] = iron-deficient infants; AA at a molar ratio of 2:1; cited from earlier work
[4] = Fractional iron absorption
[5] = adult men; without AA; consumed in 1 or separate whole-maize porridge meals; cited from earlier work

Row | Compound | iron bioavailability from inhibitory WG cereal [1] [%] | iron bioavailability from vegetable puree [1] [%] | hemoglobin change [2] | bioavailability of iron as FeSO4 from refined wheat-based infant cereal, with dephytinization [3] [%] | bioavailability of iron as FeSO4 from refined wheat-based infant cereal, without dephytinization [3] [%] | bioavailability of iron when consumed in WG-oat cereal ([4]; WG-oat cereal with AA, nonsignificant difference between FeBG and Fefum) [%] | iron bioavailability in the noninhibitory reference meal ([4]; refined wheat reference meal with AA) [%] | iron bioavailability, times higher than FeSO4 [5]
1 | ferrous sulfate [FeSO4] | 3.8 | 9.9 | significant hemoglobin increases | 8.5 | 8.7 | – | – | –
2 | O=C([O-])/C=C/C(=O)[O-].[Fe+2] [Fefum, ferrous fumarate] | – | – | – | – | – | 9.2 | 12.1 | –
3 | NCC(=O)[O-].NCC(=O)[O-].[Fe+2] [FeBG, ferrous bisglycinate] | 5.2 | 9 | significant hemoglobin increases | – | – | – | – | 4−6 times
